From ChEMBL document CHEMBL3244373, “Stereoselective effects of cis- and trans-cyclopropylbis (dioxopiperazines) related to ICRF-159 on metastases of hamster lung adenocarcinoma” (J Med Chem, 1978)
The source made the active and inactive calls. The calls are words filed in the database; no cut-off is given here.

Legend:
[1] = Induction of tumor growth in Syrian hamster LG1002 cells in allografted Syrian golden hamster at 15 mg/kg, ip for every 48 hrs for 4 weeks measured after 48 hrs of last treatment; format: organism-based, Mesocricetus auratus; set-up: dose 15 mg/kg, route intraperitoneal; conditions: in vivo
Mesocricetus auratus [2] = test: Antimetastatic activity against Syrian hamster LG1002 cells allografted to Syrian golden hamster LSH/LAK assessed as reduction of lung metastases at 15 mg/kg, ip for every 48 hrs for 4 weeks measured after 48 hrs of last treatment relative to saline control; format: functional, organism-based; set-up: dose 15 mg/kg
Mesocricetus auratus [3] = test: Antimetastatic activity against Syrian hamster LG1002 cells allografted to Syrian golden hamster LSH/LAK assessed as reduction of lung metastases at 15 mg/kg, ip for every 48 hrs for 4 weeks measured after 48 hrs of last treatment relative to carboxymethylcellulose; format: functional, organism-based; set-up: dose 15 mg/kg
[4] = Induction of tumor growth in Syrian hamster LG1002 cells in allografted Syrian golden hamster at 15 mg/kg, ip for every 48 hrs for 4 weeks measured after 48 hrs of last treatment on day 28; format: organism-based, Mesocricetus auratus; set-up: dose 15 mg/kg, route intraperitoneal; conditions: in vivo

Question: What does the source list for O=C1CN([C@@H]2C[C@@H]2N2CC(=O)NC(=O)C2)CC(=O)N1?
Answer: Activity [1]: Non-toxic; inhibition (Mesocricetus auratus [2]): Active; inhibition (Mesocricetus auratus [3]): Active

Question: With O=C1CN([C@H]2C[C@@H]2N2CC(=O)NC(=O)C2)CC(=O)N1 (relative stereo) as the compound, how does the Activity [1] read?
Answer: Toxic

Question: And the inhibition (Mesocricetus auratus [2])?
Answer: inactive

Question: What about the Activity [4] of the same compound?
Answer: > 100 mm2

Question: And the inhibition (Mesocricetus auratus [3])?
Answer: inactive
